Source: patent US8114840B2, “Medicament containing activated antithrombin III” (Hamburger Stiftung zur Forderung Von Wissenschaft und Kultur, priority 2000, dated 2012)

Key:
[1] = tested on: thrombocytes; assay: Adhesion of thrombocytes to adhesion proteins (microtitre plate, hexosaminidase); type: cell-based; details: for inhibition of IDAAT-mediated adhesion: Heparan sulfate 0-10 μg/ml, sulfatide 0-20 μg/ml; for inhibition of IDAAT-mediated adhesion of thrombocytes to collagen / inhibition of IDAAT-mediated adhesion of thrombocytes to thrombospondin (immobilized TSP-1): EDTA 5 mM; for inhibition of IDAAT-mediated adhesion of thrombocytes to thrombospondin (immobilized TSP-1): integrins 5 μg/ml, Wortmannin 20 nM, LY294002 50 μm, clone 37 with Fc receptor blocked by IV.3
Procedure: The adhesion of thrombocytes was carried out according to Santoro et al, 1994. […] Non-adhering thrombocytes were thoroughly washed out. The number of adhering platelets was determined by lysing the platelets with Triton X-100 and determining the lysosomal enzyme hexosaminidase. In order to calibrate the adhesion assay a calibration series containing a known and increasing number of platelets was added to the microtitre plate and the absorbance of the reacted substrate p-nitrophenyl-N-acetyl-β-glucosaminide was determined in relation to the number of platelets.

[2] = tested on: monocytes through a HMEC-1 monolayer; assay: Transmigration of monocytes through endothelium (Transwell); type: cell-based, human; details: purified TSP 25 μg/ml
Procedure: Transmigration experiments were carried out as described by Kielbassa et al., 1998. The addition of IDAAT to the culture medium of the monocytes during a transmigration experiment stimulates dose-dependently the transmigration of monocytes through the endothelium by 2-3-fold (see FIG. 4).
(§1) Apoptotic PMNL were incubated for 30 minutes with Hepes-Tyrode buffer pH 7.4, washed, labelled with the anti-TSP antibody P10-PE and the fluorescence of 3000 cells was measured in a flow cytometer • b) PMNL were made apoptotic by incubation in a cell culture medium for 24 hours in an incubator according to Savill et al., 1992. Apoptotic PMNL were incubated for 30 minutes with TSP-1 (5 μg/ml) and IDAAT (10 μg/ml) in Hepes-Tyrode buffer pH 7.4, washed, labelled with the TSP antibody P10-PE and the fluorescence of 3000 cells was measured in a flow cytometer. • c) Procedure as in a and b: IDAAT was used at increasing concentrations, IDAAT mediates the binding of thrombospondin (10 μg/ml) that was either present endogenously or added exogenously. […] PE and FITC positive associates were measured using a flow cytometer. […]
After a 4 hour transmigration period, the inserts were carefully removed, the cell culture plate was placed for 30 min on ice in order to detach the adhered monocytes and the number of transmigrated monocytes was counted.

[3] = tested on: thrombocytes; assay: Thrombocyte aggregation according to Born; type: cell-based; details: purified thrombospondin 25 μg/ml alone
Procedure: Gel-filtered platelets (200,000/μl) in Hepes-Tyrode buffer pH 7.4 containing fibrinogen (100 μg/ml) were examined in an aggregometer according to Born.
The method used was elucidated in detail in the description of the example. FIG. 21: The addition of monocytes (100/μl) to thrombocytes (300,000/μl) increases the adhesion of thrombocytes to TSP-1, whereas the addition of erythrocytes (20,000/μl) has an inhibitory effect. The method used was elucidated in detail in the description of the example. FIG. 22: The IDAAT-induced thrombocyte adhesion was inhibited by the inhibitors of PI-3 kinase Wortmannin (20 nM) and LY294002 (50 μm). For this purpose Wortmannin and LY294002 were preincubated for 10 minutes before adding IDAAT. FIG. 23: IDAAT mediates thrombospondin-mediated thrombocyte aggregation Thrombocyte aggregation was carded out according to Born 1962. TSP-1 (25 μg/ml) was pipetted into an aggregation-cuvette containing gel-filtered platelets (200,000/μl) in Hepes-Tyrode buffer pH 7.4 containing 100 μg/ml fibrinogen. […] Addition of IDAAT led to a weak aggregation reaction Simultaneous addition of IDAAT and soluble TSP-1 led to a pronounced aggregation. FIG. 24: IDAAT mediates the microparticle formation of thrombocytes

[4] = tested on: S. aureus binding to thrombocytes; assay: S. aureus-thrombocyte associate formation, flow cytometry; type: cell-based
Procedure: Thrombocytes were labelled with a thrombocyte-specific phycoerythrin-conjugated anti-GPIX antibody (clone Beb 1). Bacteria (various S. aureus strains) were adjusted with Tris-buffered saline solution (TBS) to a number of 250,000 microorganisms/μl and labelled with the RNA-dye Syto 13 [MoBiTec, Göttingen] at a concentration of 2 μM. Labelled bacteria and labelled thrombocytes were co-incubated for 10 minutes at a ratio of 10:1.
The cell population were analysed in a flow cytometer. Cells that were positive for both fluorochromes were classified as associates (see FIG. 12a). Thrombin stimulation and release of TSP from the α-granula of the platelets increased the percentage of platelets carrying bacteria by 2.5-fold relative to the total number of thrombocytes.

[5] = tested on: monocytes; assay: TSP-1 binding to monocytes, flow cytometry with anti-TSP antibody clone P10-PE; type: cell-based, human; details: 10 μg/ml purified TSP-1, without IDAAT; ~1% without additions
Procedure: Whereas without the addition of purified TSP-1 and without the addition of IDAAT only ˜1% of eluted human monocytes could be detected in a flow cytometer by an antibody (clone P10) which recognizes TSP-1 on the cell surface, the number increases to ca. 5% by adding 10 μg/ml purified TSP-1.
as §1, with “exogenously. FIG. 3: IDAAT cross-links apoptotic PMNL with monocytes by means of TSP Eluted PMNL and eluted monocytes were incubated together for 30 minutes at room temperature with TSP and IDAAT at various concentrations and the cells were fixed.” for “exogenously.”

[6] = tested on: TNF α; assay: TNF α secretion of monocytes activated with S. aureus and interferon γ (ELISA); type: cell-based; details: substance alone
Procedure: FIG. 9: The IL-10 secretion of monocytes activated with S. aureus and interferon γ is increased by IDAAT. Thus IDAAT promotes the secretion of an interleukin which protects against LPS-induced lethality in animal experiments. The method used was carried out analogously to FIG. 8. IL-10 was determined by means of an ELISA. FIG. 10 (sequence in the figure title: SEQ ID NO:2): The TNF α secretion of monocytes activated with S. aureus and interferon γ is inhibited by the TSP-1 peptide […] NO: 2) (10a). […] TNF α was determined by means of an ELISA. The method used was carried out analogously to FIG. 8. FIG. 11: IDAAT inhibits the Arthus reaction in the ear of Balb-C mice • a) Mouse treated twice intraperitoneally at time 0 and 0+3 hours with 50 μg IDAAT each time. Arthus reaction in the left ear • b) Mouse treated intraperitoneally twice with control buffer. Arthus reaction in the left ear • c) BSA-FITC incorporated into the ears as a measure for the Arthus reaction in mice treated with IDAAT or control buffer. Arthus reaction in the left ear. FIG. 12: • a) dot plot of the thrombocyte-bacterial association • A: thrombocytes labelled with PE-conjugated anti-GPIX antibody (Beb 1) • B: bacteria (S. aureus) labelled with Syto 13 • C: bacteria-thrombocyte associates emitting both fluorescences • b) S. aureus (Cowan 1)-thrombocyte associates

For Heparan sulfate, the “inhibition of IDAAT-mediated adhesion” value [1] was “do not inhibit”.

With O=C(O)CN(CCN(CC(=O)O)CC(=O)O)CC(=O)O [EDTA] the “inhibition of IDAAT-mediated adhesion of thrombocytes to collagen” value [1] was “completely inhibits” and the “inhibition of IDAAT-mediated adhesion of thrombocytes to thrombospondin (immobilized TSP-1)” value [1] was “completely inhibits”.

With “TSP-1: thrombospondin-1, trimeric modular glycoprotein purified from human thrombocytes” the “inhibition of IDAAT-mediated adhesion of thrombocytes to collagen” value [1] was “inhibits”, the “inhibition of IDAAT-mediated adhesion of thrombocytes to thrombospondin (immobilized TSP-1)” value [1] was “inhibits” and the “adhesion of thrombocytes to collagen” value ([1]; FIG. 20, dose dependence) was “dose-dependently inhibits”. The transmigration of monocytes [2] was “stimulates the transmigration”, the thrombocyte aggregation [3] was “no aggregation” and the “S. aureus (Cowan-1)-thrombocyte associates” value ([4]; TSP-1 added in addition to IDAAT) was “further increase in the number of associates”. The TSP-1 positive monocytes [5] was “ca. 5%”.

With sulfatide the “inhibition of IDAAT-mediated adhesion” value [1] was “do not inhibit”.

With “RFYVVMWK (listed as Homo sapiens) [TSP-1 peptide RFYVVMWK]” the “release/secretion of TNF α” value [6] was “inhibited”.

For Thrombin [reference compound], the “increase of percentage of platelets carrying bacteria” value ([4]; thrombin stimulation, release of TSP from α-granula) was 2.5 fold.
